# Data from paper PMC6222476 (Molecules : A Journal of Synthetic Chemistry and Natural …, 2018).
# Read-outs that look alike come from different tables or passages of the source.
# Experiments:
# [1] = test system: IMR-32 neuroblastoma cell line; assay: cells; type: cell-based, human; details: SRB assay, 48 h
# Procedure: (§1) All the newly synthesized compounds were screened for their in vitro anticancer activity against six cancer cell lines: SK-MEL-2, MCF-7, IMR-32, MG-63, HT-29 and Hep-G2 by SRB assay, using adriamycin as a standard drug. All the synthesized derivatives 4(a–n) were also tested for their cytotoxic effect on normal cell lines i.e., NIH/3T3 (murine embryonic fibroblast by the SRB assay method. The cell lines were grown in RPMI 1640 medium containing 10% fetal bovine serum and 2 mM L-glutamine. For the present screening experiments, cells were inoculated into 96 well microtiter plates in 90 µL at 5000 cells per well. After cell inoculation, the microtiter plates were incubated at 37 °C, 5% CO2, 95% air and 100% relative humidity for 24 h prior to addition of experimental drugs. Experimental drugs were solubilized in appropriate solvent to prepare stock of 10^−2 concentration. At the time of experiment four 10-fold serial dilutions were made using complete medium. Aliquots of 10 µL of these different drug dilutions were added to the appropriate micro-titer wells already containing 90 µL of medium, resulting in the required final drug concentrations. After compound addition, plates were incubated at standard conditions for 48 h. and assay was terminated by the addition of cold trichloroacetic acid (TCA). Cells were fixed in situ by the gentle addition of […] (final concentration, 10% TCA) and incubated for 60 min at 4 °C. The supernatant was discarded; the plates were washed five times with tap water and air dried.
# (§2) Sulforhodamine B (SRB) solution (50 µL) at 0.4% (w/v) in 1% acetic acid was added to each of the wells, and plates were incubated for 20 min at room temperature. After staining, unbound dye was recovered and the residual dye was removed by washing five times with 1% acetic acid. The plates were air dried. Bound stain was subsequently eluted with 10 mM trizma base, and the absorbance was read on an ELISA plate reader at a wavelength of 540 nm with 690 nm reference wavelength. All the tests were repeated in at least three independent experiments at the concentrations of 10, 20, 40 and 80 µg/mL [57].
# [2] = test system: HT-29 human colon cancer cell line; assay: cells; type: cell-based; details: for anticancer activity compared with standard drug adriamycin, HT-29: HT-29 (human colon cancer) cell line; for GI50: SRB assay, 48 h, HT-29
# Procedure: as §1, §2
# [3] = test system: Hep-G2 human hepatoma cell line; assay: cells; type: cell-based; details: for GI50: SRB assay, 48 h, Hep-G2
# Procedure: as §1, §2
# [4] = test system: MCF-7 human breast cancer cell line; assay: cells; type: cell-based; details: 48 h
# Procedure: as §1, §2
# [5] = test system: MG-63 human osteosarcoma cell line; assay: cells; type: cell-based; details: SRB assay, 48 h
# Procedure: as §1, §2
# [6] = test system: SK-MEL-2 human melanoma cancer cell line; assay: cells; type: cell-based; details: SRB assay, 48 h, read-out: GI50 SKMEL-2
# Procedure: as §1, §2
# [7] = test system: NIH/3T3 normal murine embryonic fibroblast cell line; assay: in vitro; type: cell-based; details: SRB assay
# Procedure: as §1, §2
# [8] = in vitro; type: cell-based; details: mouse, NIH/3T3 normal murine embryonic fibroblast cells; SRB assay, normal murine embryonic fibroblast cell line
# Procedure: as §1, §2
# [9] = test system: Swiss albino mice; assay: In vivo acute oral toxicity study and gross behavioral studies (OECD Guideline no. 425); design: key to Additional Observation: Convulsions / Behavioral Observation: Motor Activity / Behavioral Observation: Stereotypy / Behavioral Observation: Tremors / Behavioral Observation: Catalepsy / Behavioral Observation: Sedation / Behavioral Observation: Hypnosis / Behavioral Observation: Muscle Spasm / Behavioral Observation: Analgesia / Behavioral Observation: Arching & Rolling / Additional Observation: Skin and Fur / Additional Observation: Eyes Lacrimation / Additional Observation: Salivation / Additional Observation: Diarrhea / Additional Observation: Respiration / Additional Observation: Straub Tail / Additional Observation: Pilo Erection: N. no; Y: Yes; details: for Additional Observation: Convulsions / Additional Observation: Diarrhea / Additional Observation: Eyes Lacrimation / Additional Observation: Pilo Erection / Additional Observation: Respiration / Additional Observation: Salivation / Additional Observation: Skin and Fur / Additional Observation: Straub Tail / Behavioral Observation: Analgesia / Behavioral Observation: Arching & Rolling / Behavioral Observation: Catalepsy / Behavioral Observation: Hypnosis / Behavioral Observation: Motor Activity / Behavioral Observation: Muscle Spasm / Behavioral Observation: Sedation / Behavioral Observation: Stereotypy / Behavioral Observation: Tremors / No. of Death / Toxicity: Swiss albino mice; for Additional Observation: Convulsions / Additional Observation: Diarrhea / Additional Observation: Eyes Lacrimation / Additional Observation: Pilo Erection / Additional Observation: Respiration / Additional Observation: Salivation / Additional Observation: Skin and Fur / Additional Observation: Straub Tail / Behavioral Observation: Analgesia / Behavioral Observation: Arching & Rolling / Behavioral Observation: Catalepsy / Behavioral Observation: Hypnosis / Behavioral Observation: Motor Activity / Behavioral Observation: Muscle Spasm / Behavioral Observation: Sedation / Behavioral Observation: Stereotypy / Behavioral Observation: Tremors: single oral dose; for No. of Death / Toxicity: single oral dose 100-2000 mg/kg; for lethal dose / mortality: mice, oral; for mortality: up to 2000 mg/kg
# Procedure: The in vivo acute oral toxicity study for the newly synthesized scaffolds 4b and 4h was performed according to the OECD Guideline no. 425 [60] using Swiss albino mice (18–22 gm weight) quarantined at the animal house at Y.B. Chavan College of Pharmacy, Aurangabad IAEC approval number CPCSEA/IAEC/P’col-52/2015-16/115. Each group consisted of six mice (overnight fasted) and kept in a colony cage at 25 ± 2 °C with 55% relative humidity and 12 h of light and dark cycle. A specified dose of 100, 250, 500, 750, 1000, 1500 and 2000 mg/kg body weight of mice was administered orally as a single dose. The acute toxic symptoms and the behavioral changes produced by the test compounds were observed continuously for 4 h periods at 8th, 12th and 24th h. Onset of toxic symptoms and the gross behavioral changes were also recorded. These animals were maintained for further 10 days with observations made daily. In case the animal appeared moribund (dying) the animal was sacrificed in a humane way and it is considered to have died because of toxicity.
compound,measurement,setting,value
"CCOP(=O)(OCC)C(NN=C1C(=O)Nc2ccccc21)c1ccc(OC)c(OC)c1 (centres unmarked) [4e, Diethyl(3,4-dimethoxyphenyl)(2-(2-oxoindolin-3-ylidene)hydrazinyl)methylphosphonate]",GI50,[1],> 100 µM
same,"anticancer activity compared with standard drug adriamycin, HT-29",[2],equipotent
same,GI50,[2],< 0.1 µM
same,GI50,[3],12.2 µM
same,GI50,[4]; SRB assay,> 100 µM
same,GI50,[5],< 0.1 µM
same,GI50,[6],55.2 µM
same,GI50,[7],> 250 µM
"COc1cccc2c1C(=O)c1c(O)c3c(c(O)c1C2=O)C[C@@](O)(C(=O)CO)C[C@@H]3O[C@H]1C[C@H](N)[C@H](O)[C@H](C)O1 [ADR, Adriamycin, reference compound]",GI50,[1]; Homo sapiens,< 0.1 µM
same,GI50,[2]; Homo sapiens,< 0.1 µM
same,GI50,"[3]; Homo sapiens, HepG2",< 0.1 µM
same,GI50,"[4]; Homo sapiens, MCF7, SRB assay",< 0.1 µM
same,GI50,[5]; Homo sapiens,< 0.1 µM
same,GI50,[6]; Homo sapiens,< 0.1 µM
same,GI50 at 48 h,[8],82.2 µM
"CCOP(=O)(OCC)C(NN=C1C(=O)Nc2ccccc21)c1ccc(Cl)cc1 (centres unmarked) [4b, Diethyl(4-chlorophenyl)(2-(2-oxoindolin-3-ylidene)hydrazinyl)methylphosphonate]",GI50,[1],> 100 µM
same,GI50,[2],46.9 µM
same,GI50,[3],18.6 µM
same,GI50,[4]; SRB assay,67.2 µM
same,GI50,[5],< 0.1 µM
same,GI50,[6],41.4 µM
same,GI50,[7],> 250 µM
same,Additional Observation: Convulsions,[9],N
same,Additional Observation: Diarrhea,[9],N
same,Additional Observation: Eyes Lacrimation,[9],N
same,Additional Observation: Pilo Erection,[9],Y
same,Additional Observation: Respiration,[9],N
same,Additional Observation: Salivation,[9],N
same,Additional Observation: Skin and Fur,[9],N
same,Additional Observation: Straub Tail,[9],N
same,Behavioral Observation: Analgesia,[9],N
same,Behavioral Observation: Arching & Rolling,[9],N
same,Behavioral Observation: Catalepsy,[9],N
same,Behavioral Observation: Hypnosis,[9],N
same,Behavioral Observation: Motor Activity,[9],N
same,Behavioral Observation: Muscle Spasm,[9],N
same,Behavioral Observation: Sedation,[9],N
same,Behavioral Observation: Stereotypy,[9],N
same,Behavioral Observation: Tremors,[9],N
same,No. of Death,[9],Nil
same,Toxicity,[9],free of any toxicity and Nil
same,lethal dose,[9],above 2000 mg/kg body weight
same,mortality,[9],No mortality
"CCOc1cc(C(N/N=C2\C(=O)Nc3ccccc32)P(=O)(OCC)OCC)ccc1O (centres unmarked) [4h, (Z)-Diethyl(3-ethoxy-4-hydroxyphenyl)(2-(2-oxoindolin-3-ylidene)hydrazinyl)methylphosphonate]",GI50,[1],> 100 µM
same,GI50,[2],4.1 µM
same,GI50,[3],43.8 µM
same,GI50,[4]; SRB assay,70.7 µM
same,GI50,[5],< 0.1 µM
same,GI50,[6],51 µM
same,GI50,[7],> 250 µM
same,Additional Observation: Convulsions,[9],N
same,Additional Observation: Diarrhea,[9],N
same,Additional Observation: Eyes Lacrimation,[9],N
same,Additional Observation: Pilo Erection,[9],Y
same,Additional Observation: Respiration,[9],N
same,Additional Observation: Salivation,[9],N
same,Additional Observation: Skin and Fur,[9],N
same,Additional Observation: Straub Tail,[9],N
same,Behavioral Observation: Analgesia,[9],N
same,Behavioral Observation: Arching & Rolling,[9],N
same,Behavioral Observation: Catalepsy,[9],N
same,Behavioral Observation: Hypnosis,[9],N
same,Behavioral Observation: Motor Activity,[9],Y
same,Behavioral Observation: Muscle Spasm,[9],N
same,Behavioral Observation: Sedation,[9],N
same,Behavioral Observation: Stereotypy,[9],N
same,Behavioral Observation: Tremors,[9],N
same,No. of Death,[9],Nil
same,Toxicity,[9],free of any toxicity and Nil
same,lethal dose,[9],above 2000 mg/kg body weight
same,mortality,[9],No mortality
"CCOP(=O)(OCC)C(N/N=C1\C(=O)Nc2ccccc21)c1cccs1 (centres unmarked) [4i, (Z)-Diethyl(2-(2-oxoindolin-3-ylidene)hydrazinyl)(thiophen-2-yl)methylphosphonate]",GI50,[1],> 100 µM
same,"anticancer activity compared with standard drug adriamycin, HT-29",[2],equipotent
same,GI50,[2],< 0.1 µM
same,"anticancer activity compared with standard drug Adriamycin, Hep-G2",[3]; Hep-G2 (human hepatoma) cell line,equipotent
same,GI50,[3],< 0.1 µM
same,GI50,[4]; SRB assay,> 100 µM
same,GI50,[5],< 0.1 µM
same,GI50,[6],55.5 µM
same,GI50,[7],> 250 µM
"CCOP(=O)(OCC)C(NN=C1C(=O)Nc2ccccc21)c1ccc(OC)cc1 (centres unmarked) [4d, (Z)-Diethyl(4-methoxyphenyl)(2-(2-oxoindolin-3-ylidene)hydrazinyl)methylphosphonate]",GI50,[1],> 100 µM
same,"anticancer activity compared with standard drug adriamycin, HT-29",[2],equipotent
same,GI50,[2],< 0.1 µM
same,GI50,[3],45.3 µM
same,GI50,[4]; SRB assay,> 100 µM
same,GI50,[5],< 0.1 µM
same,GI50,[6],65.7 µM
same,GI50,[7],> 250 µM
"CCOP(=O)(OCC)C(NN=C1C(=O)Nc2ccccc21)c1ccccc1 (centres unmarked) [4a, Diethyl(phenyl)(2-(2-oxoindolin-3-ylidene)hydrazinyl)methylphosphonate]",GI50,[1],> 100 µM
same,GI50,[2],56.9 µM
same,GI50,[3],55.2 µM
same,GI50,[4]; SRB assay,> 100 µM
same,GI50,[5],< 0.1 µM
same,GI50,[6],56.9 µM
same,GI50,[7],> 250 µM
"CCOP(=O)(OCC)C(NN=C1C(=O)Nc2ccccc21)c1ccc(F)cc1 (centres unmarked) [4c, Diethyl(4-flurophenyl)(2-(2-oxoindolin-3-ylidene)hydrazinyl)methylphosphonate]",GI50,[1],> 100 µM
same,GI50,[2],20.8 µM
same,GI50,[3],32 µM
same,GI50,[4]; SRB assay,> 100 µM
same,GI50,[5],< 0.1 µM
same,GI50,[6],57.5 µM
same,GI50,[7],> 250 µM
"CCOP(=O)(OCC)C(NN=C1C(=O)Nc2ccccc21)c1ccco1 (centres unmarked) [4j, (Z)-Diethylfuran-2-yl(2-(2-oxoindolin-3-ylidene)hydrazinyl)methylphosphonate]",GI50,[1],> 100 µM
same,"anticancer activity compared with standard drug adriamycin, HT-29",[2],equipotent
same,GI50,[2],< 0.1 µM
same,GI50,[3],44.6 µM
same,GI50,[4]; SRB assay,> 100 µM
same,GI50,[5],< 0.1 µM
same,GI50,[6],93.9 µM
same,GI50,[7],> 250 µM
